Experimental data taken from the supplement of paper PMC10627819.

Columns and labels:
S. pneumoniae D39V [1] = experiment: fitness (endpoint OD595 vs no drug) (fraction); higher = more growth
In short: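 Fitness was measured as bacterial growth in 384-well plates inoculated at OD595 0.01 (30 µl, or 55 µl for S. pneumoniae). Media were TSB, LB Lennox or CY, at 37 °C. OD595 was read every 30 min for 14 h and background-subtracted against the first reading. Fitness is OD595 at the transition into stationary phase divided by the robust mean of no-drug control wells, capped at 1.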

B. subtilis 168 = experiment: Bliss interaction score (quartile over a dose matrix) (fitness difference); higher = more antagonism (negative = synergy)
In short: (§1)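 The Bliss score is observed fitness minus expected fitness, where the expected value is the product of single-drug fitness values inferred from combination data. Fitness is OD595 at entry into stationary phase normalised to the plate's robust no-drug mean and capped at 1. Scores are reported as quartiles spanning technical, biological and donor/recipient replicates.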

S. aureus DSM 20231 = experiment: as above
In short: as §1

S. aureus Newman = experiment: as above
In short: as §1

S. pneumoniae D39V [2] = experiment: as above
In short: as §1
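For Bliss interaction score (quartile over a dose matrix) in this document: first quartile when negative (synergy) and third quartile when positive (antagonism).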
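For fitness (endpoint OD595 vs no drug) in this document: OD595 on entry to stationary phase over no-drug wells; at most 1.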

CC[C@H]1OC(=O)[C@H](C)[C@@H](O[C@H]2C[C@@](C)(OC)[C@@H](O)[C@H](C)O2)[C@H](C)[C@@H](O[C@@H]2O[C@H](C)C[C@H](N(C)C)[C@H]2O)[C@](C)(OC)C[C@@H](C)C(=O)[C@H](C)[C@@H](O)[C@]1(C)O [Clarithromycin] + CCC[C@@H]1C[C@@H](C(=O)N[C@@H]([C@H]2O[C@H](SC)[C@H](O)[C@@H](O)[C@H]2O)[C@@H](C)O)N(C)C1 [Lincomycin]
fitness, S. pneumoniae D39V [1], one replicate
Conditions | first compound 0.007812 µg/mL | first compound 0.01562 µg/mL | first compound 0.03125 µg/mL
partner 0.2 µg/mL | 0.614 | 0.678 | 0.559
partner 0.4 µg/mL | 0.545 | 0.619 | 0.395
partner 0.8 µg/mL | 0.0517 | 0.0966 | 0.0574

fitness, S. pneumoniae D39V [1]
Conditions | first compound 0.0625 µg/mL | first compound 0.07 µg/mL | first compound 0.125 µg/mL | first compound 0.14 µg/mL | first compound 0.25 µg/mL | first compound 0.28 µg/mL
partner 0.2 µg/mL | – | 0.0703 | – | 0.063 | – | 0.0359
partner 0.215 µg/mL | 0.656 | – | 0.487 | – | 0.328 | –
partner 0.4 µg/mL | – | 0.0783 | – | 0.0665 | – | 0.035
partner 0.43 µg/mL | 0.599 | – | 0.367 | – | 0.262 | –
partner 0.8 µg/mL | – | 0.0297 | – | 0.0353 | – | 0.0359
partner 0.86 µg/mL | 0.269 | – | 0.131 | – | 0.0936 | –

Conditions | Bliss interaction score
B. subtilis 168 | 0.103
S. aureus DSM 20231 | -0.12
S. aureus Newman | -0.144
S. pneumoniae D39V [2] | 0.0426

CC[C@H]1OC(=O)[C@H](C)[C@@H](O[C@H]2C[C@@](C)(OC)[C@@H](O)[C@H](C)O2)[C@H](C)[C@@H](O[C@@H]2O[C@H](C)C[C@H](N(C)C)[C@H]2O)[C@](C)(OC)C[C@@H](C)C(=O)[C@H](C)[C@@H](O)[C@]1(C)O [Clarithromycin] + CCN(CC)CCOC(=O)c1ccc(N)cc1 [Procaine]
fitness, S. pneumoniae D39V [1], one replicate
Conditions | first compound 0.007812 µg/mL | first compound 0.01562 µg/mL | first compound 0.03125 µg/mL | first compound 0.0625 µg/mL | first compound 0.125 µg/mL | first compound 0.25 µg/mL
partner 85.5 µg/mL | 0.962 | 0.921 | 0.691 | 0.659 | 0.251 | 0.102
partner 171 µg/mL | 0.983 | 0.903 | 0.702 | 0.77 | 0.284 | 0.169
partner 342 µg/mL | 0.993 | 0.923 | 0.719 | 0.595 | 0.464 | 0.33

fitness, S. pneumoniae D39V [1]
Conditions | first compound 0.07 µg/mL | first compound 0.14 µg/mL | first compound 0.28 µg/mL
partner 85.5 µg/mL | 0.125 | 0.0737 | 0.0531
partner 171 µg/mL | 0.141 | 0.065 | 0.0466
partner 342 µg/mL | 0.141 | 0.0668 | 0.061

Conditions | Bliss interaction score
B. subtilis 168 | 0.0395
S. aureus DSM 20231 | 0.0493
S. aureus Newman | 0.0711
S. pneumoniae D39V [2] | 0.0576

CC[C@H]1OC(=O)[C@H](C)[C@@H](O[C@H]2C[C@@](C)(OC)[C@@H](O)[C@H](C)O2)[C@H](C)[C@@H](O[C@@H]2O[C@H](C)C[C@H](N(C)C)[C@H]2O)[C@](C)(OC)C[C@@H](C)C(=O)[C@H](C)[C@@H](O)[C@]1(C)O [Clarithromycin] + CN1C2=CC=CC=C2N=C3C1=CC=CC3=O [Pyocyanin]
fitness, S. pneumoniae D39V [1], one replicate
Conditions | first compound 0.007812 µg/mL | first compound 0.01562 µg/mL | first compound 0.03125 µg/mL | first compound 0.0625 µg/mL | first compound 0.125 µg/mL | first compound 0.25 µg/mL
partner 0.325 µg/mL | 0.965 | 0.884 | 0.682 | 0.757 | 0.486 | 0.112
partner 0.65 µg/mL | 0.928 | 0.88 | 0.651 | 0.75 | 0.501 | 0.273
partner 1.3 µg/mL | 0.747 | 0.695 | 0.525 | – | – | –

fitness, S. pneumoniae D39V [1]
Conditions | first compound 0.07 µg/mL | first compound 0.14 µg/mL | first compound 0.28 µg/mL
partner 0.325 µg/mL | 0.0912 | 0.0902 | 0.0525
partner 0.65 µg/mL | 0.0867 | 0.0888 | 0.0453
partner 1.3 µg/mL | 0.0798 | 0.0783 | 0.0672

Conditions | Bliss interaction score
B. subtilis 168 | 0.0334
S. aureus DSM 20231 | -0.0903
S. aureus Newman | -0.0697
S. pneumoniae D39V [2] | -0.0433

CC[C@H]1OC(=O)[C@H](C)[C@@H](O[C@H]2C[C@@](C)(OC)[C@@H](O)[C@H](C)O2)[C@H](C)[C@@H](O[C@@H]2O[C@H](C)C[C@H](N(C)C)[C@H]2O)[C@](C)(OC)C[C@@H](C)C(=O)[C@H](C)[C@@H](O)[C@]1(C)O [Clarithromycin] + CN(C)C(=O)C(CCN1CCC(O)(c2ccc(Cl)cc2)CC1)(c1ccccc1)c1ccccc1 [Loperamide]
fitness, S. pneumoniae D39V [1], one replicate
Conditions | first compound 0.007812 µg/mL | first compound 0.01562 µg/mL | first compound 0.03125 µg/mL | first compound 0.0625 µg/mL | first compound 0.125 µg/mL | first compound 0.25 µg/mL
partner 20 µg/mL | ≥ 1 | ≥ 1 | 0.711 | – | – | –
partner 40 µg/mL | ≥ 1 | 0.995 | 0.768 | – | – | –
partner 68.57 µg/mL | – | – | – | 0.913 | 0.515 | 0.498
partner 80 µg/mL | 0.0268 | 0.0618 | 0.0304 | – | – | –

fitness, S. pneumoniae D39V [1]
Conditions | first compound 0.0625 µg/mL | first compound 0.07 µg/mL | first compound 0.125 µg/mL | first compound 0.14 µg/mL | first compound 0.28 µg/mL
partner 17.14 µg/mL | 0.788 | – | 0.541 | – | –
partner 20 µg/mL | – | 0.168 | – | 0.0771 | 0.0614
partner 34.28 µg/mL | 0.751 | – | 0.491 | – | –
partner 40 µg/mL | – | 0.173 | – | 0.0855 | 0.0994
partner 80 µg/mL | – | 0.0672 | – | 0.0833 | 0.047

Conditions | Bliss interaction score
B. subtilis 168 | 0.0248
S. aureus DSM 20231 | 0.18
S. aureus Newman | -0.0355
S. pneumoniae D39V [2] | 0.129
